Results: ChEMBL document CHEMBL1201862, “PubChem BioAssay data set” (2004)
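Exposure lasted 48 hours, with cells grown in 96-well plates and compounds tested at five concentrations. At the GI50, growth is halved.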 Activity calls are given as the source filed them. No stated cut-off is given here; in the data, active = GI50 up to about 1.1 µM and inactive = higher.

Assays:
Assay in all cases: NCI anticancer screen, dose series, 48 h
786-0 = tested on: 786-0
A549 = tested on: A549
ACHN = tested on: ACHN
CAKI-1 = tested on: CAKI-1
CCRF-CEM = tested on: CCRF-CEM
COLO 205 = tested on: COLO 205
DLD-1 = tested on: DLD-1
DMS-114 = tested on: DMS-114
DMS-273 = tested on: DMS-273
EKVX = tested on: EKVX
HCC 2998 = tested on: HCC 2998
HCT-15 = tested on: HCT-15
HL-60 = tested on: HL-60
HOP-62 = tested on: HOP-62
HOP-92 = tested on: HOP-92
IGROV-1 = tested on: IGROV-1
K562 = tested on: K562
KM-20L2 = tested on: KM-20L2
KM12 = tested on: KM12
LOX IMVI = tested on: LOX IMVI
LXFL 529 = tested on: LXFL 529
M14 = tested on: M14
M19-MEL = tested on: M19-MEL
MOLT-4 = tested on: MOLT-4
Malme-3M = tested on: Malme-3M
NCI-H23 = tested on: NCI-H23
NCI-H460 = tested on: NCI-H460
NCI-H522 = tested on: NCI-H522
OVCAR-3 = tested on: OVCAR-3
OVCAR-4 = tested on: OVCAR-4
OVCAR-5 = tested on: OVCAR-5
OVCAR-8 = tested on: OVCAR-8
RPMI-8226 = tested on: RPMI-8226
RXF 393 = tested on: RXF 393
SF-268 = tested on: SF-268
SF-295 = tested on: SF-295
SK-MEL-28 = tested on: SK-MEL-28
SK-MEL-2 = tested on: SK-MEL-2
SK-MEL-5 = tested on: SK-MEL-5
SK-OV-3 = tested on: SK-OV-3
SN12C = tested on: SN12C
SNB-19 = tested on: SNB-19
SNB-75 = tested on: SNB-75
SNB-78 = tested on: SNB-78
SW-620 = tested on: SW-620
TK-10 = tested on: TK-10
UACC-257 = tested on: UACC-257
UACC-62 = tested on: UACC-62
UO-31 = tested on: UO-31
XF498 = tested on: XF498
A498 = tested on: A498
HCT-116 = tested on: HCT-116
HT-29 = tested on: HT-29
NCI-H226 = tested on: NCI-H226
SF-539 = tested on: SF-539
SR = tested on: SR
U-251 = tested on: U-251

With `COc1cc2c(cc1OC)NC(=O)NC(Cc1ccc3c(c1)OCO3)CC2` (stereo unspecified) as the molecule, how does the GI50 (786-0) read?
The GI50 was > 100 µM (inactive).

What about the GI50 (A549) of the same molecule?
The GI50 was > 100 µM (inactive).

And the GI50 (ACHN)?
The GI50 was > 100 µM (inactive).

And the GI50 (CAKI-1)?
The GI50 was > 100 µM (inactive).

What about the GI50 (CCRF-CEM) of the same molecule?
The GI50 was > 100 µM (inactive).

What about the GI50 (COLO 205) of the same molecule?
The GI50 was > 100 µM (inactive).

What about the GI50 (DLD-1) of the same molecule?
The GI50 was > 100 µM (inactive).

What about the GI50 (DMS-114) of the same molecule?
Its GI50 is > 100 µM (inactive).

And the GI50 (DMS-273)?
Its GI50 is > 100 µM (inactive).

And the GI50 (EKVX)?
The GI50 was > 100 µM (inactive).

And the GI50 (HCC 2998)?
Its GI50 is > 100 µM (inactive).

What about the GI50 (HCT-15) of the same molecule?
The GI50 was over 100 µM.

What about the GI50 (HL-60) of the same molecule?
The GI50 was > 100 µM (inactive).

What about the GI50 (HOP-62) of the same molecule?
Its GI50 is 51.5 µM (inactive).

What about the GI50 (HOP-92) of the same molecule?
Its GI50 is 30.2 µM (inactive).

What about the GI50 (IGROV-1) of the same molecule?
Its GI50 is > 100 µM (inactive).

What about the GI50 (K562) of the same molecule?
Its GI50 is > 100 µM (inactive).

And the GI50 (KM-20L2)?
The GI50 was > 100 µM (inactive).

What about the GI50 (KM12) of the same molecule?
The GI50 was > 100 µM (inactive).

And the GI50 (LOX IMVI)?
Its GI50 is > 100 µM (inactive).

What about the GI50 (LXFL 529) of the same molecule?
Its GI50 is > 100 µM (inactive).

What about the GI50 (M14) of the same molecule?
The GI50 was > 100 µM (inactive).

And the GI50 (M19-MEL)?
Its GI50 is > 100 µM (inactive).

What about the GI50 (MOLT-4) of the same molecule?
Its GI50 is > 100 µM (inactive).

What about the GI50 (Malme-3M) of the same molecule?
The GI50 was > 100 µM (inactive).

What about the GI50 (NCI-H23) of the same molecule?
Its GI50 is > 100 µM (inactive).

What about the GI50 (NCI-H460) of the same molecule?
Its GI50 is > 100 µM (inactive).

What about the GI50 (NCI-H522) of the same molecule?
The GI50 was 29 µM (inactive).

What about the GI50 (OVCAR-3) of the same molecule?
Its GI50 is > 100 µM (inactive).

What about the GI50 (OVCAR-4) of the same molecule?
The GI50 was > 100 µM (inactive).

And the GI50 (OVCAR-5)?
The GI50 was > 100 µM (inactive).

What about the GI50 (OVCAR-8) of the same molecule?
The GI50 was > 100 µM (inactive).

And the GI50 (RPMI-8226)?
The GI50 was 83.9 µM (inactive).

And the GI50 (RXF 393)?
Its GI50 is > 100 µM (inactive).

And the GI50 (SF-268)?
The GI50 was > 100 µM (inactive).

And the GI50 (SF-295)?
The GI50 was 84.5 µM (inactive).

And the GI50 (SK-MEL-28)?
Its GI50 is > 100 µM (inactive).

What about the GI50 (SK-MEL-2) of the same molecule?
The GI50 was > 100 µM (inactive).

And the GI50 (SK-MEL-5)?
The GI50 was > 100 µM (inactive).

What about the GI50 (SK-OV-3) of the same molecule?
The GI50 was > 100 µM (inactive).

What about the GI50 (SN12C) of the same molecule?
Its GI50 is > 100 µM (inactive).

And the GI50 (SNB-19)?
Its GI50 is > 100 µM (inactive).

And the GI50 (SNB-75)?
The GI50 was 24 µM (inactive).

What about the GI50 (SNB-78) of the same molecule?
Its GI50 is > 100 µM (inactive).

What about the GI50 (SW-620) of the same molecule?
The GI50 was > 100 µM (inactive).

What about the GI50 (TK-10) of the same molecule?
Its GI50 is > 100 µM (inactive).

And the GI50 (UACC-257)?
The GI50 was > 100 µM (inactive).

What about the GI50 (UACC-62) of the same molecule?
Its GI50 is > 100 µM (inactive).

What about the GI50 (UO-31) of the same molecule?
Its GI50 is 76.9 µM (inactive).

What about the GI50 (XF498) of the same molecule?
Its GI50 is > 100 µM (inactive).

Which GI50 (786-0) does the source give for `COC(=O)[C@]1(C)CCC[C@]2(C)C3CC4OOC3(C=C4C(C)C)CCC21` (stereo partly specified) here?
Its GI50 is 5.51 µM (inactive).

And the GI50 (A498)?
Its GI50 is 11.4 µM (inactive).

And the GI50 (A549)?
Its GI50 is 16.8 µM (inactive).

What about the GI50 (ACHN) of the same molecule?
Its GI50 is 17.4 µM (inactive).

What about the GI50 (CAKI-1) of the same molecule?
The GI50 was 21.9 µM (inactive).

What about the GI50 (CCRF-CEM) of the same molecule?
The GI50 was 3.01 µM (inactive).

What about the GI50 (COLO 205) of the same molecule?
Its GI50 is 19.7 µM (inactive).

And the GI50 (DLD-1)?
The GI50 was 12.7 µM (inactive).

And the GI50 (DMS-114)?
The GI50 was 13.7 µM (inactive).

What about the GI50 (DMS-273) of the same molecule?
The GI50 was 18.5 µM (inactive).

And the GI50 (EKVX)?
Its GI50 is 16.7 µM (inactive).

What about the GI50 (HCC 2998) of the same molecule?
Its GI50 is 16.5 µM (inactive).

What about the GI50 (HCT-116) of the same molecule?
The GI50 was 15.7 µM (inactive).

What about the GI50 (HCT-15) of the same molecule?
Its GI50 is 16.5 µM.

What about the GI50 (HL-60) of the same molecule?
Its GI50 is 2.07 µM (inactive).

What about the GI50 (HOP-62) of the same molecule?
The GI50 was 24.5 µM (inactive).

What about the GI50 (HT-29) of the same molecule?
Its GI50 is 14.7 µM (inactive).

And the GI50 (IGROV-1)?
Its GI50 is 16 µM (inactive).

And the GI50 (K562)?
The GI50 was 12 µM (inactive).

And the GI50 (KM-20L2)?
Its GI50 is 17.9 µM (inactive).

What about the GI50 (KM12) of the same molecule?
Its GI50 is 17.4 µM (inactive).

And the GI50 (LOX IMVI)?
Its GI50 is 2.77 µM (inactive).

And the GI50 (LXFL 529)?
Its GI50 is 13.7 µM (inactive).

And the GI50 (M14)?
Its GI50 is 15.5 µM (inactive).

What about the GI50 (MOLT-4) of the same molecule?
The GI50 was 16.9 µM (inactive).

What about the GI50 (Malme-3M) of the same molecule?
The GI50 was 20.8 µM (inactive).

What about the GI50 (NCI-H226) of the same molecule?
The GI50 was 19.6 µM (inactive).

What about the GI50 (NCI-H23) of the same molecule?
The GI50 was 18.8 µM (inactive).

What about the GI50 (NCI-H460) of the same molecule?
The GI50 was 12.4 µM (inactive).

And the GI50 (NCI-H522)?
The GI50 was 1.78 µM (inactive).

And the GI50 (OVCAR-3)?
The GI50 was 31.8 µM (inactive).

What about the GI50 (OVCAR-4) of the same molecule?
Its GI50 is 19.9 µM (inactive).

What about the GI50 (OVCAR-5) of the same molecule?
The GI50 was 19.6 µM (inactive).

What about the GI50 (OVCAR-8) of the same molecule?
The GI50 was 19.8 µM (inactive).

What about the GI50 (RPMI-8226) of the same molecule?
Its GI50 is 12.7 µM (inactive).

And the GI50 (SF-268)?
The GI50 was 15.4 µM (inactive).

And the GI50 (SF-295)?
The GI50 was 16.3 µM (inactive).

And the GI50 (SF-539)?
Its GI50 is 17 µM (inactive).

What about the GI50 (SK-MEL-2) of the same molecule?
Its GI50 is 17.2 µM (inactive).

What about the GI50 (SK-MEL-5) of the same molecule?
The GI50 was 16.1 µM (inactive).

What about the GI50 (SK-OV-3) of the same molecule?
Its GI50 is 20.1 µM (inactive).

And the GI50 (SN12C)?
Its GI50 is 16.8 µM (inactive).

And the GI50 (SNB-19)?
Its GI50 is 17.4 µM (inactive).

And the GI50 (SNB-78)?
The GI50 was 16.5 µM (inactive).

What about the GI50 (SR) of the same molecule?
Its GI50 is 9.66 µM (inactive).

And the GI50 (SW-620)?
The GI50 was 16 µM (inactive).

What about the GI50 (TK-10) of the same molecule?
The GI50 was 23.4 µM (inactive).

What about the GI50 (U-251) of the same molecule?
The GI50 was 19.8 µM (inactive).

What about the GI50 (UACC-257) of the same molecule?
Its GI50 is 17.3 µM (inactive).

And the GI50 (UACC-62)?
Its GI50 is 17.1 µM (inactive).

And the GI50 (UO-31)?
Its GI50 is 15.2 µM (inactive).
